Laboratory results as given in BindingDB's records for doi:10.1016/0014-2999(79)90202-4 (1979).

molecular target: 5-hydroxytryptamine receptor 7 (Rattus norvegicus, UniProt P32305)
Sequence (P32305 whole entry): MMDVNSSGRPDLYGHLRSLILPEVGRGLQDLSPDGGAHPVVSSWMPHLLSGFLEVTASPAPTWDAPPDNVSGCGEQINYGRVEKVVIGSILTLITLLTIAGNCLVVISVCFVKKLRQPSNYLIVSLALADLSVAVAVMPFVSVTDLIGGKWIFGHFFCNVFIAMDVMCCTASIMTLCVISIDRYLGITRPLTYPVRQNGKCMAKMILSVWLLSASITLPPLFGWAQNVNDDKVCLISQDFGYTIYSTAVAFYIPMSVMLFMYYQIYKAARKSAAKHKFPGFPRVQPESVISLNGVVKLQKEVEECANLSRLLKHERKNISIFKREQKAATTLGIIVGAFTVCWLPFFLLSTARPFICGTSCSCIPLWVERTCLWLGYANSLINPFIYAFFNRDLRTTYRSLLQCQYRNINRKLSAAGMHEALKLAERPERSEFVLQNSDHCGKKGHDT

Compound	Ki [nM]
CC(COc1ccccc1)N(CCCl)Cc1ccccc1 (stereo unspecified)	0.9
c1cc2c(c(NC3=NCCN3)c1)CCCC2	290
CNCC(O)c1ccc(O)c(O)c1 (stereo unspecified) [EPINEPHRINE]	600
CNC[C@H](O)c1cccc(O)c1 [PHENYLEPHRINE]	1400
c1ccc(CC2=NCCN2)cc1 [Tolazoline]	2000

The remaining molecules from weak to strong by Ki, led by results:

Ki [nM]	Compound
360	c1ccc2c(c1)OCC(CN1CCCCC1)O2 (stereo unspecified) [Piperoxan]
43	c1ccc2c(CC3=NCCN3)cccc2c1 [Naphazoline]
23	Cc1cc(C(C)(C)C)c(O)c(C)c1CC1=NCCN1 [SMR000059324]
5	O=C(NC1CCN(CCc2c[nH]c3ccccc23)CC1)c1ccccc1 [N-{1-[2-(1H-Indol-3-yl)-ethyl]-piperidin-4-yl}-benzamide(indoramin)]
1	COc1cccc(OC)c1OCCNCC1Oc2ccccc2OC1c1ccccc1 (stereo unspecified) [NSC_185453]
0.1	COc1cc2nc(N3CCN(C(=O)c4ccco4)CC3)nc(N)c2cc1OC [[3H]-Minipress]
